Test results: patent US20240092835A1, “NOVEL PEPTIDES CAPABLE OF ALTERING NK CELL ACTIVITY” (Massachusetts Institute of Technology, priority 2022, published 2024)

What was measured:
NKG2A+/NKG2C− NK cells = assay: NK cell activation markers in NKG2A+/NKG2C- NK cells incubated with peptide and K562 expressing HLA-E (inhibition); assay type: cell-based, human; details: for percentage of CCL3+ NK cells / percentage of CD107a+ NK cells / percentage of IFNG+ NK cells / percentage of TNF+ NK cells: NKG2A+/NKG2C- NK cells, K562/HLA-E
Procedure, shortened: (§1)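 Percent-positive cells for NK activation surface markers were measured after NK cells met peptide-treated K562 cells expressing HLA-E. A decrease in that fraction was scored as inhibition and an increase as activation; NKG2A−/NKG2C− cells served as controls.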

NKG2A−/NKG2C+ NK cells = assay: NK cell activation markers in NKG2A-/NKG2C+ NK cells incubated with peptide and K562 expressing HLA-E (activation); assay type: cell-based, human; details: for effect on NKG2A−/NKG2C+ NK cell activation (in words): K562 expressing HLA-E, CD107a, IFNG, TNF, CCL3; for percentage of CCL3+ NK cells / percentage of CD107+ NK cells / percentage of IFNG+ NK cells / percentage of TNF+ NK cells: NKG2A-/NKG2C+ NK cells, K562/HLA-E
Procedure, shortened: as §1

NKG2A−/NKG2C− NK cells = assay: NK cell activation markers in control NKG2A-/NKG2C- NK cells incubated with peptide and K562 expressing HLA-E; assay type: cell-based, human
Procedure, shortened: as §1

HLA-E = molecular target: T1, HLA-E (Homo sapiens, UniProt P13747); assay: HLA-E surface stabilization assay with RMA-S/HLA-E cells; assay type: cell-based; details: 30 μM peptide, 16 hours, anti-HLA-E antibody
T1 construct: expressed in transfected cells; host or cells: RMA-S/HLA-E cells (antigen processing-defective lymphoma cell line)
T1 sequence (P13747 22-358): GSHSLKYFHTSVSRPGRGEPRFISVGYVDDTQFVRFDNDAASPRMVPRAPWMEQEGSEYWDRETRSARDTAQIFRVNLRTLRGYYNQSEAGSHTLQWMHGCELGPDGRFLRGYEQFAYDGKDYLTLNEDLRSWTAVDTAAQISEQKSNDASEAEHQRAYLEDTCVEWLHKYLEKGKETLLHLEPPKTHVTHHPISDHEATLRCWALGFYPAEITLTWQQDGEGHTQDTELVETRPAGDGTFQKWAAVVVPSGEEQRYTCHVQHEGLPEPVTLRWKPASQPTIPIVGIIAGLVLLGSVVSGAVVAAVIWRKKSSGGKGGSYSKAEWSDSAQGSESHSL
T1 sequence (P61769 21-119 partner): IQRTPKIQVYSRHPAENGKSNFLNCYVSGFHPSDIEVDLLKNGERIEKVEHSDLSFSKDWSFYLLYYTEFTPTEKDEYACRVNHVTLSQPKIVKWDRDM
Description: HLA-E surface expression was assessed by measuring geometric mean fluorescence intensity (GeoMFI) in RMA-S cells following immunofluorescence staining with an anti-HLA-E antibody (Table 14). Increased GeoMFI was indicative of increased HLA-E surface expression stability following novel peptide exposures (FIG. 3).

TLPERTLYL [human7, peptide ECEL1 269-277 derived from the human proteome]
effect on NKG2A+/NKG2C− NK cell inhibition (in words) (NKG2A+/NKG2C− NK cells; K562 expressing HLA-E, CD107a, IFNG, TNF, CCL3): strong inhibitory | percentage of CCL3+ NK cells (NKG2A+/NKG2C− NK cells; Trial 1): 1.37% | percentage of CD107a+ NK cells (NKG2A+/NKG2C− NK cells; Trial 1): 0.52% | percentage of IFNG+ NK cells (NKG2A+/NKG2C− NK cells; Trial 1): 0.13% | percentage of TNF+ NK cells (NKG2A+/NKG2C− NK cells; Trial 1): 0.05% | percentage of CCL3+ NK cells (NKG2A+/NKG2C− NK cells; Trial 2): 1.85% | percentage of CD107a+ NK cells (NKG2A+/NKG2C− NK cells; Trial 2): 0.72% | percentage of IFNG+ NK cells (NKG2A+/NKG2C− NK cells; Trial 2): 0.21% | percentage of TNF+ NK cells (NKG2A+/NKG2C− NK cells; Trial 2): 0.11% | percentage of CCL3+ NK cells (NKG2A+/NKG2C− NK cells; Trial 3): 1.62% | percentage of CD107a+ NK cells (NKG2A+/NKG2C− NK cells; Trial 3): 0.59% | percentage of IFNG+ NK cells (NKG2A+/NKG2C− NK cells; Trial 3): 0.49% | percentage of TNF+ NK cells (NKG2A+/NKG2C− NK cells; Trial 3): 0.1% | percentage of CCL3+ NK cells (NKG2A+/NKG2C− NK cells; Trial 4): 0.64% | percentage of CD107a+ NK cells (NKG2A+/NKG2C− NK cells; Trial 4): 0.71% | percentage of IFNG+ NK cells (NKG2A+/NKG2C− NK cells; Trial 4): 0.16% | percentage of TNF+ NK cells (NKG2A+/NKG2C− NK cells; Trial 4): 0.08% | percentage of CCL3+ NK cells (NKG2A+/NKG2C− NK cells; Trial 5): 1.26% | percentage of CD107a+ NK cells (NKG2A+/NKG2C− NK cells; Trial 5): 0.64% | percentage of IFNG+ NK cells (NKG2A+/NKG2C− NK cells; Trial 5): 0.28% | percentage of TNF+ NK cells (NKG2A+/NKG2C− NK cells; Trial 5): 0.18% | percentage of CCL3+ NK cells (NKG2A+/NKG2C− NK cells; Trial 6): 2.68% | percentage of CD107a+ NK cells (NKG2A+/NKG2C− NK cells; Trial 6): 1.96% | percentage of IFNG+ NK cells (NKG2A+/NKG2C− NK cells; Trial 6): 0.67% | percentage of TNF+ NK cells (NKG2A+/NKG2C− NK cells; Trial 6): 0.38% | effect on NKG2A−/NKG2C+ NK cell activation (in words) (NKG2A−/NKG2C+ NK cells; listed as SEQ ID NO. 11): strong activating effects | effect on NKG2A−/NKG2C+ NK cell activation (in words) (NKG2A−/NKG2C+ NK cells; listed as h7): strong inhibitory and activating effects | percentage of CCL3+ NK cells (NKG2A−/NKG2C+ NK cells; Trial 1): 77% | percentage of CD107+ NK cells (NKG2A−/NKG2C+ NK cells; Trial 1): 76.2% | percentage of IFNG+ NK cells (NKG2A−/NKG2C+ NK cells; Trial 1): 66.6% | percentage of TNF+ NK cells (NKG2A−/NKG2C+ NK cells; Trial 1): 54.5% | percentage of CCL3+ NK cells (NKG2A−/NKG2C+ NK cells; Trial 2): 92.4% | percentage of CD107+ NK cells (NKG2A−/NKG2C+ NK cells; Trial 2): 89.5% | percentage of IFNG+ NK cells (NKG2A−/NKG2C+ NK cells; Trial 2): 87.3% | percentage of TNF+ NK cells (NKG2A−/NKG2C+ NK cells; Trial 2): 79.9% | percentage of CCL3+ NK cells (NKG2A−/NKG2C+ NK cells; Trial 3): 87.5% | percentage of CD107+ NK cells (NKG2A−/NKG2C+ NK cells; Trial 3): 87.7% | percentage of IFNG+ NK cells (NKG2A−/NKG2C+ NK cells; Trial 3): 79.8% | percentage of TNF+ NK cells (NKG2A−/NKG2C+ NK cells; Trial 3): 70.1% | percentage of CCL3+ NK cells (NKG2A−/NKG2C+ NK cells; Trial 4): 61.5% | percentage of CD107+ NK cells (NKG2A−/NKG2C+ NK cells; Trial 4): 63.2% | percentage of IFNG+ NK cells (NKG2A−/NKG2C+ NK cells; Trial 4): 54.1% | percentage of TNF+ NK cells (NKG2A−/NKG2C+ NK cells; Trial 4): 47.8% | percentage of CCL3+ NK cells (NKG2A−/NKG2C+ NK cells; Trial 5): 77.3% | percentage of CD107+ NK cells (NKG2A−/NKG2C+ NK cells; Trial 5): 76.5% | percentage of IFNG+ NK cells (NKG2A−/NKG2C+ NK cells; Trial 5): 70% | percentage of TNF+ NK cells (NKG2A−/NKG2C+ NK cells; Trial 5): 66.1% | percentage of CCL3+ NK cells (NKG2A−/NKG2C+ NK cells; Trial 6): 55.6% | percentage of CD107+ NK cells (NKG2A−/NKG2C+ NK cells; Trial 6): 55.3% | percentage of IFNG+ NK cells (NKG2A−/NKG2C+ NK cells; Trial 6): 45.4% | percentage of TNF+ NK cells (NKG2A−/NKG2C+ NK cells; Trial 6): 37.8% | percentage CCL3+ NK cells (NKG2A−/NKG2C− NK cells; Trial 1): 30.7% | percentage CD107+ NK cells (NKG2A−/NKG2C− NK cells; Trial 1): 21.8% | percentage TNF+ NK cells (NKG2A−/NKG2C− NK cells; Trial 1): 4.13% | percentage of IFNG+ NK cells (NKG2A−/NKG2C− NK cells; Trial 1): 13.3% | percentage CCL3+ NK cells (NKG2A−/NKG2C− NK cells; Trial 2): 49.5% | percentage CD107+ NK cells (NKG2A−/NKG2C− NK cells; Trial 2): 27.4% | percentage TNF+ NK cells (NKG2A−/NKG2C− NK cells; Trial 2): 7.88% | percentage of IFNG+ NK cells (NKG2A−/NKG2C− NK cells; Trial 2): 23.4% | percentage CCL3+ NK cells (NKG2A−/NKG2C− NK cells; Trial 3): 47% | percentage CD107+ NK cells (NKG2A−/NKG2C− NK cells; Trial 3): 41.8% | percentage TNF+ NK cells (NKG2A−/NKG2C− NK cells; Trial 3): 14.2% | percentage of IFNG+ NK cells (NKG2A−/NKG2C− NK cells; Trial 3): 34.9% | percentage CCL3+ NK cells (NKG2A−/NKG2C− NK cells; Trial 4): 27.4% | percentage CD107+ NK cells (NKG2A−/NKG2C− NK cells; Trial 4): 24% | percentage TNF+ NK cells (NKG2A−/NKG2C− NK cells; Trial 4): 7.92% | percentage of IFNG+ NK cells (NKG2A−/NKG2C− NK cells; Trial 4): 16.4% | percentage CCL3+ NK cells (NKG2A−/NKG2C− NK cells; Trial 5): 22.9% | percentage CD107+ NK cells (NKG2A−/NKG2C− NK cells; Trial 5): 17.2% | percentage TNF+ NK cells (NKG2A−/NKG2C− NK cells; Trial 5): 5.21% | percentage of IFNG+ NK cells (NKG2A−/NKG2C− NK cells; Trial 5): 12.7% | percentage CCL3+ NK cells (NKG2A−/NKG2C− NK cells; Trial 6): 22.6% | percentage CD107+ NK cells (NKG2A−/NKG2C− NK cells; Trial 6): 20.5% | percentage TNF+ NK cells (NKG2A−/NKG2C− NK cells; Trial 6): 4.34% | percentage of IFNG+ NK cells (NKG2A−/NKG2C− NK cells; Trial 6): 10.9% | HLA-E surface expression stability (GeoMFI) (HLA-E; Trial 1): 3203 GeoMFI | HLA-E surface expression stability (GeoMFI) (HLA-E; Trial 2): 3535 GeoMFI | HLA-E surface expression stability (GeoMFI) (HLA-E; Trial 3): 3903 GeoMFI | HLA-E surface expression stability (GeoMFI) (HLA-E; Trial 4): 4464 GeoMFI
